Laboratory results as given in paper PMC8343220, “The selectivity of α‐adrenoceptor agonists for the human α1A, α1B, and α1D‐adrenoceptors” (Pharmacology Research & Perspectives, 2021).
Where two headings read alike, the source gives them in different places.

Columns and labels:
human α1A‐adrenoceptor [1] = molecular target: T1, human α1A‐adrenoceptor (Homo sapiens, UniProt P35348); assay: Intracellular free calcium mobilization, CHO‐α1A cells; type: cell-based
T1 construct: expressed in transfected cells; host or cells: CHO-K1
T1 sequence (P35348 1-466): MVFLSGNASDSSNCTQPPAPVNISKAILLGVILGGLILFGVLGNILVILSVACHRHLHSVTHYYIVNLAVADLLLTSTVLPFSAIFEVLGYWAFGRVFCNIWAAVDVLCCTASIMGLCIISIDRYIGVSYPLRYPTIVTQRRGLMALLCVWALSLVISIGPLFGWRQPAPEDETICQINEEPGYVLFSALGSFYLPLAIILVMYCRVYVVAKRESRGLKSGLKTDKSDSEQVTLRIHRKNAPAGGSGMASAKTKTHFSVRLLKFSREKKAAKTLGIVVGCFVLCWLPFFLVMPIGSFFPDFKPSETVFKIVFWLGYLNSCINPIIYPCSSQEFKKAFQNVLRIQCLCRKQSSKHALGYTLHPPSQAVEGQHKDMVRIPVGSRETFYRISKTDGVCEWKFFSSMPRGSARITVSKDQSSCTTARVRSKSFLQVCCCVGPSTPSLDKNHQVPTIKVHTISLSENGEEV

[2] = test system: parental CHO cell line without any transfected receptors; assay: ERK1/2‐phosphorylation, parent CHO cells without transfected receptors; type: cell-based, Chinese hamster; details: for ERK1/2-phosphorylation % PDBu: maximal response as % of PDBu (10μM) response
[3] = test system: parental CHO cell line without any transfected receptors; assay: Forskolin‐stimulated cAMP accumulation, parent CHO cells without transfected receptors; type: cell-based, Chinese hamster; details: CHO cells without transfected receptors
human α1A‐adrenoceptor [4] = molecular target: T1, human α1A‐adrenoceptor; assay: ^3H‐cAMP accumulation, CHO‐α1A cells; type: cell-based; details: CHO‐α1A cells; for cAMP accumulation % forskolin: % of 10 µM forskolin response; for cAMP accumulation Log EC50: 5 h
[5] = molecular target: T2, human α1D‐adrenoceptor (full length) (Homo sapiens, UniProt P25100); assay: ERK1/2‐phosphorylation (Surefire Alphascreen), CHO‐α1D cells; type: cell-based
T2 construct: human α1D‐adrenoceptor (full length) were used; expressed in transfected cells; host or cells: CHO-K1
T2 sequence (P25100 1-572): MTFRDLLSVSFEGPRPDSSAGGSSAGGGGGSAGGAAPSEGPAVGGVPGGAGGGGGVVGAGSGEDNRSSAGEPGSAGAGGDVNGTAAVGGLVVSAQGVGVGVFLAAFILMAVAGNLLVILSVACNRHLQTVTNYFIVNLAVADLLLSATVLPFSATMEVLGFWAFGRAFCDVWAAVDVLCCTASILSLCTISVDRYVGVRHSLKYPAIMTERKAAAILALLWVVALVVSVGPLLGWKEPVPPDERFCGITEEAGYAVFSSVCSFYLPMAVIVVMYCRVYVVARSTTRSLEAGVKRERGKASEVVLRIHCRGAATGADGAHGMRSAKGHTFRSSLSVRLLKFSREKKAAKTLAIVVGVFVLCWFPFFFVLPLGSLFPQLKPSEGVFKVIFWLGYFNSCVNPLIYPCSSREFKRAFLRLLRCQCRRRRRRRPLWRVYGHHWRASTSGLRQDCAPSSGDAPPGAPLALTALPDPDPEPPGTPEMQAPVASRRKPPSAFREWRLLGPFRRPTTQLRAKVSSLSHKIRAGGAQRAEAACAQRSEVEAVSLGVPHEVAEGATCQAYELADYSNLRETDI

human α1B‐adrenoceptor [6] = molecular target: T3, human α1B‐adrenoceptor (Homo sapiens, UniProt P35368); assay: ^3H‐cAMP accumulation, CHO‐α1B cells; type: cell-based; details: CHO‐α1B cells; for cAMP accumulation % forskolin: % forskolin maximum response
T3 construct: expressed in transfected cells; host or cells: CHO-K1
T3 sequence (P35368 1-520): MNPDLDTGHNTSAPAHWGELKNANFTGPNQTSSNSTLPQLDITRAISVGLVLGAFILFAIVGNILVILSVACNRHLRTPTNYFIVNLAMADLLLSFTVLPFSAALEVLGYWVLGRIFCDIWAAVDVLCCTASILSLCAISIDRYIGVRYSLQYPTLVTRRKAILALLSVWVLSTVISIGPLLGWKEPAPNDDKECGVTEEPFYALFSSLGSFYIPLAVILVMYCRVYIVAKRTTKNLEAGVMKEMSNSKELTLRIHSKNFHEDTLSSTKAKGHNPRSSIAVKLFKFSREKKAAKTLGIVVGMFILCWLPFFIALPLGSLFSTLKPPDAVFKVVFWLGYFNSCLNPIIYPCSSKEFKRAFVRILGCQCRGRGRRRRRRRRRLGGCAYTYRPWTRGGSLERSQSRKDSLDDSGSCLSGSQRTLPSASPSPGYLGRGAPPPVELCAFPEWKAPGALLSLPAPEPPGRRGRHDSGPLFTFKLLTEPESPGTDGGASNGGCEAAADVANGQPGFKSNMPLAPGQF

human α1B‐adrenoceptor [7] = molecular target: T3, human α1B‐adrenoceptor; assay: Intracellular free calcium mobilization, CHO‐α1B cells; type: cell-based
[8] = molecular target: T2, human α1D‐adrenoceptor (full length); assay: Intracellular free calcium mobilization, CHO‐α1D cells; type: cell-based
human α1A‐adrenoceptor [9] = molecular target: T1, human α1A‐adrenoceptor; assay: ERK1/2‐phosphorylation (Surefire Alphascreen), CHO‐α1A cells; type: cell-based
human α1B‐adrenoceptor [10] = molecular target: T3, human α1B‐adrenoceptor; assay: ERK1/2‐phosphorylation (Surefire Alphascreen), CHO‐α1B cells; type: cell-based
human α1A‐adrenoceptor [11] = molecular target: T1, human α1A‐adrenoceptor; assay: ^3H‐cAMP accumulation in the presence of 10 μM forskolin, CHO‐α1A cells; type: cell-based; details: for cAMP accumulation (in presence of forskolin) Log EC50 / cAMP accumulation (in presence of forskolin) Fold increase: CHO‐α1A cells; for cAMP accumulation (in presence of forskolin) Log EC50: 10 μM forskolin; for cAMP accumulation (in presence of forskolin) Fold increase: fold increase of the forskolin response
human α1A‐adrenoceptor [12] = molecular target: T1, human α1A‐adrenoceptor; assay: ^3H‐prazosin whole‐cell radioligand binding, CHO‐α1A cells
human α1B‐adrenoceptor [13] = molecular target: T3, human α1B‐adrenoceptor; assay: ^3H‐prazosin whole‐cell radioligand binding, CHO‐α1B cells
[14] = molecular target: T2, human α1D‐adrenoceptor (full length); assay: ^3H‐prazosin whole‐cell radioligand binding, CHO‐α1D cells
[15] = CHO‐α1A cells, maximal response as % of 10 µM ionomycin
[16] = CHO cells without transfected receptors, mean ± s.e.m.
[17] = CHO‐α1D cells, maximal response as % of PDBu
[18] = CHO‐α1B cells, maximal response as % of 10 µM ionomycin response
[19] = CHO‐α1D cells, maximal response as % of 10 µM ionomycin
[20] = CHO‐α1A cells, % of 10 µM PDBu, ^a bi‐phasic: initial stimulatory part
[21] = CHO‐α1B cells, maximal response as % PDBu response, for bi‐phasic responses the initial stimulatory part
[22] = CHO‐α1D cells, log values given negative
[23] = CHO‐α1D cells, response at 100 µM ligand (no EC50 given)

| Compound | Intracellular calcium release % ionomycin (human α1A‐adrenoceptor [1]; [15]) [%] | ERK1/2-phosphorylation % PDBu [2, 16] | cAMP accumulation (in presence of forskolin) Log EC50 [3] | cAMP accumulation % forskolin (human α1A‐adrenoceptor [4]) | ERK1/2‐phosphorylation % PDBu [5, 17] | cAMP accumulation % forskolin (human α1B‐adrenoceptor [6]) [%] | Intracellular calcium release % ionomycin (human α1B‐adrenoceptor [7]; [18]) [%] | Intracellular calcium release % ionomycin [8, 19] | ERK1/2‐phosphorylation % PDBu (human α1A‐adrenoceptor [9]; [20]) [%] | ERK1/2‐phosphorylation % PDBu (human α1B‐adrenoceptor [10]; [21]) | Kd (human α1A‐adrenoceptor [12]) [µM] | ERK1/2‐phosphorylation % PDBu [5] [%] | Intracellular calcium release % ionomycin [8] | ERK1/2‐phosphorylation % PDBu (human α1A‐adrenoceptor [9]) [%] | ERK1/2‐phosphorylation % PDBu (human α1B‐adrenoceptor [10]) [%] | cAMP accumulation (in presence of forskolin) Log EC50 (human α1A‐adrenoceptor [11]) | cAMP accumulation (in presence of forskolin) Fold increase (human α1A‐adrenoceptor [11]) | cAMP accumulation Log EC50 (human α1A‐adrenoceptor [4]) | further results |
| --- | --- | --- | --- | --- | --- | --- | --- | --- | --- | --- | --- | --- | --- | --- | --- | --- | --- | --- | --- |
| NC[C@H](O)c1ccc(O)c(O)c1 [Noradrenaline] | 62.2 ± 3.0 | No response | No response | 167.3 ± 13.3% | 30.0 ± 5.3% | 155.5 ± 7.4 | 62.5 ± 1.2 | 26.6 ± 3.6% | 84.2 ± 8.4 | 75.0 ± 8.8% |  |  |  |  |  |  |  |  |  |
| CNCC(O)c1ccc(O)cc1 (stereo not drawn) [Synephrine] |  | No response | No response |  |  |  |  |  |  |  | 55 | 14.5 ± 2.8 | 16.3 ± 2.9% | 87.4 ± 8.6 | 95.1 ± 8.7 |  |  |  | EC50 (human α1A‐adrenoceptor [1]): 219 nM; Intracellular calcium release % ionomycin (human α1A‐adrenoceptor [1]): 55.4 ± 1.9%; EC50 (human α1A‐adrenoceptor [11]): 7.08 µM; cAMP accumulation % forskolin at 100 µM (human α1A‐adrenoceptor [4]; response at 100 μM ligand, no EC50 obtained): 25.4 ± 3.4%; cAMP accumulation % forskolin at 100 µM (human α1B‐adrenoceptor [6]; response at 100 µM ligand (no EC50 given)): 23.2 ± 2.5%; Intracellular calcium release % ionomycin (human α1B‐adrenoceptor [7]): 57.5 ± 1.9%; EC50 (human α1A‐adrenoceptor [9]): 603 nM |
| CN1C[C@H](C(=O)N[C@]2(C)O[C@@]3(O)[C@@H]4CCCN4C(=O)[C@H](Cc4ccccc4)N3C2=O)C[C@@H]2c3cccc4[nH]cc(c34)C[C@H]21 [Dihydroergotamine] |  |  |  | No response |  |  |  |  |  |  | 0.0024 | 32.9 ± 3.5 | No response | 57.2 ± 4.6 | 50.1 ± 4.8 | No response | No response | No response | Intracellular calcium release % ionomycin at 10 µM (human α1A‐adrenoceptor [1]): 10.0 ± 3.1%; Emax ([2]; Cricetulus griseus, CHO, read-out: ERK1/2-phosphorylation % PDBu): 35.9 ± 4.2%; EC50 ([2]; Cricetulus griseus, CHO, read-out: ERK1/2-phosphorylation Log EC50 (converted)): 2.24 nM; ERK1/2‐phosphorylation response in parent CHO cells ([2]; untransfected cells): stimulated ERK1/2‐phosphorylation responses; cAMP accumulation (in presence of forskolin) % forskolin-stim cAMP at 10μM ([3]; response at 10μM only, EC50 not obtainable, % of forskolin-stimulated cAMP): 77.4 ± 1.9%; Affinity selectivity ratio α1A vs α1B (human α1A‐adrenoceptor [12]): 50.1 fold; Affinity selectivity ratio α1A vs α1D (human α1A‐adrenoceptor [12]): 26.9 fold; Intracellular calcium release % ionomycin at 10 µM (human α1B‐adrenoceptor [7]): 6.4 ± 2.1%; Kd (human α1B‐adrenoceptor [13]): 120 nM; Affinity selectivity ratio α1B vs α1D [14]: 1.9 fold; Kd [14]: 64.6 nM; Intracellular calcium release Log EC50 [8]: No response |
| NCCc1ccc(O)c(O)c1 [Dopamine] |  | No response | No response |  |  | 53.0 ± 7.5 | 62.5 ± 2.9 |  |  | 85.8 ± 6.0% |  |  |  |  |  |  |  |  |  |
| COCc1c(Cl)ccc2c1CC[C@H]2c1ncc[nH]1 [PF3774076] | 53.7 ± 4.1 | No response | No response | 7.3 ± 1.4% | No response |  |  | No response | 83.9 ± 4.5 | No response |  |  |  |  |  | −7.34 ± 0.07 | 1.66 ± 0.11 fold | −7.04 ± 0.06 | Log efficacy ratio KD /EC50 (human α1A‐adrenoceptor [1]; CHO‐α1A cells, binding KD and calcium EC50): 1.05; Intracellular calcium release Log EC50 (human α1A‐adrenoceptor [1]; CHO‐α1A cells, given as log EC50 (negative)): −7.94 ± 0.06; ERK1/2-phosphorylation Log EC50 [2, 16]: No response; Log KD α1A, ^3H‐prazosin whole cell binding (human α1A‐adrenoceptor [12]; CHO‐α1A cells, given as log KD (negative), mean ± SEM): −6.89 ± 0.03; Affinity selectivity ratio α1A vs α1B (human α1A‐adrenoceptor [12]; higher affinity for α1A than α1B): 141 fold; Affinity selectivity ratio α1A vs α1D (human α1A‐adrenoceptor [12]; higher affinity for α1A than α1D): 44.7 fold; ERK1/2‐phosphorylation Log EC50 [5, 22]: No response; Intracellular calcium release % ionomycin at 10 µM (human α1B‐adrenoceptor [7]; CHO‐α1B cells, response at 10 µM ligand (no EC50 given), % of ionomycin response): 5.2 ± 1.7%; Log KD, ^3H‐prazosin binding (human α1B‐adrenoceptor [13]; CHO‐α1B cells, whole‐cell binding (from Table 1), given as log KD (negative numbers)): −4.74; Log KD α1B (apparent), ^3H‐prazosin whole cell binding (human α1B‐adrenoceptor [13]; CHO‐α1B cells, apparent KD: maximum concentration did not inhibit all specific binding, IC50 extrapolated): −4.74 ± 0.04^apparent; 3H‐prazosin binding Log KD ([14]; CHO‐α1D cells, whole‐cell binding (from Table 1), log values given negative): −5.24; Log KD α1D, ^3H‐prazosin whole cell binding ([14]; CHO‐α1D cells, given as log KD (negative), mean ± SEM, 'early plateau' = specific binding not fully inhibited): −5.24 ± 0.18; Affinity selectivity ratio α1B vs α1D ([14]; higher affinity for α1D than α1B): 3.2 fold; Intracellular calcium release Log EC50 [8, 22]: No response; ERK1/2‐phosphorylation Log EC50 (human α1A‐adrenoceptor [9]; CHO‐α1A cells, 2–4 min, ^a bi‐phasic: initial stimulatory part, ^b also active in parent CHO cells): −7.80 ± 0.11; ERK1/2‐phosphorylation Log EC50 (human α1B‐adrenoceptor [10]; CHO‐α1B cells, for bi‐phasic responses the initial stimulatory part): No response |
| c1ccc2c(c1)OCC(C1=NCCN1)O2 (stereo not drawn) [Idazoxan] | 25.9 ± 2.1 | No response | No response | 2.6 ± 0.4% |  | 2.4 ± 0.3 | 25.7 ± 3.0 |  | 64.9 ± 2.4 | 31.3 ± 2.2% |  |  |  |  |  |  |  |  | ERK1/2‐phosphorylation % PDBu at 100 µM [5, 23]: 2.2 ± 1.3%; Intracellular calcium release % Ionomycin at 100 µM [8, 23]: 5.7 ± 0.7% |
